Some test systems named below: ACHN; CAKI-1; CCRF-CEM; DU-145; HOP-62; HT-29; Hs-578T; K562; LOX IMVI; M14; MCF7; MOLT-4; NCI-H226; NCI-H522; NCI/ADR-RES; OVCAR-4; OVCAR-5; SK-MEL-28; UO-31; SF-539.
What all share (assay): DTP human tumour cell line panel, 48 h

SMILES strings stand for the structures. Where “and” joins values, the source holds several entries; their conditions need not be identical. Equal values may be shown once. Where a name gives a salt, the structure may show the parent alone.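 Briefly, cells in 96-well plates were exposed to five compound concentrations for 48 h, and endpoints were estimated by linear interpolation. Abbreviation: GI50, concentration required for 50% inhibition of growth.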 Calls of active or inactive are those of the source. No stated cut-off is given here; in the data, active = GI50 up to about 1.1 µM and inactive = higher. Residues, ends and D or L forms follow the SMILES beside them. *: point of attachment. Tfa = O=C(C(F)(F)F)*

Consider `CC(C)c1ccc2c(c1)/C(=C1/Nc3ccccc3/C1=N/O)C(=O)N2`, for which the GI50 in the test with ACHN was 3.33 µM (inactive); in the test on CAKI-1, 4.29 µM (inactive); in the test on CCRF-CEM, 3.14 µM (inactive); in the test on DU-145, 6.07 µM (inactive); in the test with HOP-62, 10.7 µM (inactive); in the test on HT-29, 4.69 µM (inactive). For the same molecule, the GI50 in the test on Hs-578T is 4.76 µM (inactive); with K562 it was 4.07 µM (inactive); with LOX IMVI, 5.07 µM (inactive); with M14, 11.5 µM (inactive); in the test with MCF7, 1.69 µM (inactive); in the test on MOLT-4, 3.3 µM (inactive). Further, the GI50 in the test with NCI-H226 is 10.8 µM (inactive); with NCI-H522, 4.06 µM (inactive); in the test on NCI/ADR-RES it was 4.38 µM (inactive); with OVCAR-4 it was 4.32 µM (inactive); in the test on OVCAR-5, 16.1 µM (inactive); in the test on SK-MEL-28 it was 13.5 µM (inactive). Further, in the test on UO-31, the GI50 was 3.69 µM (inactive).
Turning to `Clc1ccc(NCNC2Nc3ccccc3N2)cc1Cl`, the GI50 in the test with ACHN is 26.6 µM (inactive); in the test on CAKI-1, 34.6 µM (inactive); with CCRF-CEM, 25 µM (inactive); in the test with DU-145 it was > 100 µM (inactive); in the test on HOP-62, 72.1 µM (inactive); in the test on HT-29, 13.7 µM (inactive). The GI50 was > 100 µM (inactive) in the test with Hs-578T; 12.4 µM (inactive) in the test on K562; 4.63 µM (inactive) with LOX IMVI; 83.4 µM (inactive) with M14; 0.247 µM (active) in the test on MCF7; 39.2 µM (inactive) with MOLT-4. Besides, the GI50 with NCI-H226 is 27.5 µM (inactive); in the test with NCI-H522, 22.4 µM (inactive); in the test with NCI/ADR-RES, 83.4 µM (inactive); with OVCAR-5, > 100 µM (inactive); in the test on SF-539 it was 48.5 µM (inactive); in the test with SK-MEL-28 it was 70.5 µM (inactive). In the test on UO-31, the GI50 is 27.4 µM (inactive).
As for `CC1(C)C=[N+]([O-])C(C)(C)N1`, the GI50 in the test with ACHN, in the test on CAKI-1, with CCRF-CEM, with DU-145, in the test with HOP-62 and in the test on HT-29 was > 100 µM (inactive) in each case. Besides, the GI50 in the test on Hs-578T, in the test on K562, with LOX IMVI, in the test with M14, in the test with MCF7 and with MOLT-4 was > 100 µM (inactive) each time. For the same molecule, the GI50 in the test with NCI-H226, with NCI/ADR-RES, with OVCAR-4, in the test with OVCAR-5, in the test with SF-539 and in the test with SK-MEL-28 was > 100 µM (inactive) in each case. For the same molecule, in the test with UO-31, the GI50 was > 100 µM (inactive).
On to `CCN(CC)CCOC(c1cc(OC)ccc1OC)c1ccc2n1-c1ccccc1OC2` (stereo not given), for which the GI50 in the test with ACHN is 13.8 µM (inactive); with CAKI-1, 14.9 µM (inactive); in the test on CCRF-CEM, 3.25 µM (inactive); in the test with DU-145 it was 22.9 µM (inactive); with HOP-62, 16.4 µM (inactive); with HT-29 it was 3.41 µM (inactive). Besides, the GI50 was 13.7 µM (inactive) in the test with Hs-578T; 7.23 µM (inactive) in the test on K562; 11.5 µM (inactive) in the test with LOX IMVI; 15.7 µM (inactive) in the test on M14; 14.6 µM (inactive) in the test with MCF7; 3.98 µM (inactive) in the test on NCI-H226. Also, the GI50 was 15.2 µM (inactive) with NCI-H522; 2.57 µM (inactive) with NCI/ADR-RES; 13.9 µM (inactive) with OVCAR-4; 15.8 µM (inactive) in the test on OVCAR-5; 15 µM (inactive) in the test on SK-MEL-28; 11 µM (inactive) with UO-31.
On to `Cc1cccc2c(N)c3cccc(C(=O)NCC[N+](C)(C)[O-])c3nc12`, for which the GI50 in the test with ACHN was 2.83 µM (inactive); in the test with CAKI-1 it was 3.42 µM (inactive); with CCRF-CEM it was 2.49 µM (inactive); with DU-145, 3.02 µM (inactive); with HOP-62, 3.61 µM (inactive); with HT-29, 6.01 µM (inactive). For the same molecule, the GI50 with Hs-578T is 5.37 µM (inactive); with K562 it was 3.13 µM (inactive); in the test with LOX IMVI it was 10.4 µM (inactive); in the test with M14 it was 19.2 µM (inactive); with MCF7, 2.1 µM (inactive); in the test on MOLT-4, 0.542 µM (active). The GI50 was 3.05 µM (inactive) in the test with NCI-H226; 6.21 µM (inactive) in the test with NCI/ADR-RES; 10.3 µM (inactive) with OVCAR-4; 5.32 µM (inactive) in the test with OVCAR-5; 6.82 µM (inactive) in the test with SF-539; 17.3 µM (inactive) with SK-MEL-28. Also, in the test on UO-31, the GI50 was 21.7 µM (inactive).
Consider `Clc1ccc(-c2nn3c(COc4cccc(OCc5nnc6sc(-c7ccc(Cl)cc7)nn56)c4)nnc3s2)cc1`, for which the GI50 was 22.4 µM (inactive) in the test with ACHN; 22 µM (inactive) in the test on CAKI-1; 25.4 µM (inactive) in the test with DU-145; 56.6 µM (inactive) in the test with HOP-62; 24.5 µM (inactive) in the test on HT-29; 59 µM (inactive) in the test on Hs-578T. Also, the GI50 in the test with K562 was 24.4 µM (inactive); in the test with LOX IMVI, 26.3 µM (inactive); with M14, 27.4 µM (inactive); in the test with MCF7, 14.1 µM (inactive); in the test on MOLT-4, 14.3 µM (inactive); with NCI-H226 it was > 100 µM (inactive). For the same molecule, the GI50 in the test on NCI-H522 was 22.8 µM (inactive); in the test with NCI/ADR-RES, 36.9 µM (inactive); with OVCAR-4, 12.9 µM (inactive); with OVCAR-5, 28.6 µM (inactive); with SF-539, 26.9 µM (inactive); in the test with SK-MEL-28 it was 7.78 µM (inactive). In the test with UO-31, the GI50 is 19.5 µM (inactive).
Take `CC(=O)/N=C1/N(/C=C2\C(=O)Oc3ccccc3C2=O)C(=O)/C(=C/c2cccc(Cl)c2Cl)N1C`: the GI50 with ACHN was 13.7 µM (inactive); in the test with CAKI-1, 27.4 µM (inactive); in the test with CCRF-CEM, 11.1 µM (inactive); with DU-145, 41.8 µM (inactive); in the test on HOP-62, 19.7 µM (inactive); in the test on HT-29, 19.1 µM (inactive). The GI50 in the test on Hs-578T is 3.87 µM (inactive); with K562, 10.7 µM (inactive); in the test on LOX IMVI it was 24.6 µM (inactive); in the test on M14, 14.8 µM (inactive); in the test on MCF7, 25.7 µM (inactive); in the test with MOLT-4, 20.7 µM (inactive). In addition, the GI50 in the test with NCI-H226 is 24 µM (inactive); in the test with NCI-H522 it was 18.2 µM (inactive); in the test with NCI/ADR-RES, 22.5 µM (inactive); in the test with OVCAR-5, 30.3 µM (inactive); in the test on SF-539, 4.42 µM (inactive); with SK-MEL-28, 29 µM (inactive).
As for `COC(=O)[C@H](Cc1ccccc1)NC(=O)[C@H](Cc1ccccc1)NC(=O)CN1C(=O)[C@@H]2C3C=CC(C3)[C@@H]2C1=O`, the GI50 is 16.7 µM (inactive) and 16.2 µM (inactive) with ACHN; 16.7 µM (inactive) and 18.6 µM (inactive) with CAKI-1; 20.1 µM (inactive) and 17.9 µM (inactive) in the test on DU-145; 19.7 µM (inactive) and 18.7 µM (inactive) with HOP-62; 19.2 µM (inactive) and 20 µM (inactive) in the test on HT-29; 19.1 µM (inactive) and 19.5 µM (inactive) in the test with Hs-578T. For the same molecule, the GI50 with LOX IMVI is 18.3 µM (inactive) and 17.9 µM (inactive); in the test with M14 it was 19.9 µM (inactive) and 18.6 µM (inactive); in the test with MCF7, 18.5 µM (inactive) and 17.8 µM (inactive); in the test with MOLT-4 it was 3.32 µM (inactive) and 2.26 µM (inactive); with NCI-H226, 20.1 µM (inactive) and 19.1 µM (inactive); in the test with NCI-H522 it was 16 µM (inactive) and 14.1 µM (inactive). Moreover, the GI50 with NCI/ADR-RES was 33 µM (inactive) and 22.2 µM (inactive); in the test on OVCAR-4, 16.1 µM (inactive) and 19 µM (inactive); with OVCAR-5 it was 22 µM (inactive) and 19.8 µM (inactive); in the test on SF-539 it was 18.7 µM (inactive) and 17.9 µM (inactive); in the test with SK-MEL-28, 19.3 µM (inactive) and 18.1 µM (inactive); with UO-31, 23.3 µM (inactive) and 15.7 µM (inactive).
With `CC1(C)O[C@@H]2COC(=O)[C@@H]2O1`, the GI50 in the test on ACHN, in the test with CAKI-1, in the test with CCRF-CEM, with DU-145, in the test with HT-29 and with Hs-578T was > 100 µM (inactive) throughout. The GI50 in the test on K562, in the test on LOX IMVI, in the test with M14, in the test on MCF7, with MOLT-4 and in the test on NCI-H226 was > 100 µM (inactive) throughout. For the same molecule, the GI50 is > 100 µM (inactive) in the test with NCI-H522; > 100 µM (inactive) in the test with NCI/ADR-RES; > 100 µM (inactive) in the test on OVCAR-4; > 100 µM (inactive) with OVCAR-5; 2.95 µM (inactive) in the test with SF-539; > 100 µM (inactive) in the test on SK-MEL-28. Moreover, the GI50 with UO-31 is > 100 µM (inactive).
For the molecule `O=C(O)CC(NC(=O)C(F)(F)F)C(=O)NC(Cc1ccc(O)cc1)C(=O)O` (stereo not drawn) (Tfa-Asp-Tyr-OH; configuration not given here), the GI50 in the test with ACHN, in the test on CAKI-1, in the test on DU-145, in the test with HOP-62, in the test on HT-29 and in the test with Hs-578T was > 50 µM (inactive) in each case. Moreover, the GI50 in the test with K562, with M14, with MCF7, in the test with MOLT-4, with NCI-H226 and with NCI-H522 was > 50 µM (inactive) in each case. In addition, the GI50 in the test with NCI/ADR-RES, with OVCAR-5, with SF-539, in the test on SK-MEL-28 and in the test on UO-31 was > 50 µM (inactive) in each case.

A word on the GI50: it is the concentration that inhibits growth by half.

The record behind these values is ChEMBL document CHEMBL1201862, “PubChem BioAssay data set” (2004).
